Measured values from ChEMBL document CHEMBL3872221, “Solvent-free synthesis of bacillamide analogues as novel cytotoxic and anti-inflammatory agents” (Eur J Med Chem, 2016).

Assays:
[1] = Cytotoxicity against human Jurkat cells assessed as cell survival at 10 uM measured after 48 hrs by MTT assay relative to control; format: functional; details: read-out: Survival
[2] = Cytotoxicity against human HCT116 cells assessed as cell survival at 10 uM measured after 48 hrs by MTT assay relative to control; format: functional; details: HCT-116, 48 h, read-out: Survival
[3] = Cytotoxicity against human MDA-MB-231 cells assessed as cell survival at 10 uM measured after 48 hrs by MTT assay relative to control; format: functional; details: MDA-MB-231, 48 h, read-out: Survival
Rattus norvegicus [4] = assay: Antiinflammatory activity in rat assessed as inhibition of carrageenan-induced hind paw edema at 50 mg/Kg, po administered 30 mins before carrageenan challenge measured after 1 hr relative to control; format: functional
Rattus norvegicus [5] = assay: Antiinflammatory activity in rat assessed as inhibition of carrageenan-induced hind paw oedema at 50 mg/Kg, po administered 30 mins before carrageenan challenge measured after 2 hrs relative to control; format: functional
Rattus norvegicus [6] = assay: Antiinflammatory activity in rat assessed as inhibition of carrageenan-induced hind paw oedema at 50 mg/Kg, po administered 30 mins before carrageenan challenge measured after 3 hrs relative to control; format: functional
Rattus norvegicus [7] = assay: Antiinflammatory activity in rat assessed as inhibition of carrageenan-induced hind paw oedema at 50 mg/Kg, po administered 30 mins before carrageenan challenge measured after 4 hrs relative to control; format: functional
[8] = Cytotoxicity against human HCT116 cells assessed as effect on cell viability measured after 48 hrs by MTT assay; format: functional, cell-based; details: HCT-116, 48 h
[9] = Cytotoxicity against human MDA-MB-231 cells assessed as effect on cell viability measured after 48 hrs by MTT assay; format: functional, cell-based; details: MDA-MB-231, 48 h
[10] = Cytotoxicity against human Jurkat cells assessed as effect on cell viability measured after 48 hrs by MTT assay; format: functional, cell-based
Jurkat = assay: Induction of apoptosis in human Jurkat cells assessed as activation of caspase 3/7 at 1 uM measured after 48 hrs by fluorescence assay relative to control; format: functional

O=C(NCCc1c[nH]c2ccccc12)c1csc(-c2ccc(Cl)cc2)n1
viability at 10 µM [1]: 84.8%
viability at 10 µM [2]: 99.2%
viability at 10 µM [3]: 94.8%
inhibition in vivo at 50 mg/kg (Rattus norvegicus [4]): 68%
inhibition in vivo at 50 mg/kg (Rattus norvegicus [5]): 63%
inhibition in vivo at 50 mg/kg (Rattus norvegicus [6]): 62%
inhibition in vivo at 50 mg/kg (Rattus norvegicus [7]): 56%

Cc1ccc(-c2nc(C(=O)NCCc3c[nH]c4ccccc34)cs2)cc1
viability at 10 µM [1]: 88.3%
viability at 10 µM [2]: 108%
viability at 10 µM [3]: 87.3%
inhibition in vivo at 50 mg/kg (Rattus norvegicus [4]): 81%
inhibition in vivo at 50 mg/kg (Rattus norvegicus [5]): 77%
inhibition in vivo at 50 mg/kg (Rattus norvegicus [6]): 57%
inhibition in vivo at 50 mg/kg (Rattus norvegicus [7]): 70%

Nc1nc(C(=O)NCCc2c[nH]c3ccccc23)cs1
viability at 10 µM [1]: 42.3%
viability at 10 µM [2]: 20.3%
viability at 10 µM [3]: 24.8%
IC50 [8]: 5400 nM
IC50 [9]: 3000 nM
IC50 [10]: 3000 nM
fold change (FC) (Jurkat): 4 - 5
inhibition in vivo at 50 mg/kg (Rattus norvegicus [4]): 86%
inhibition in vivo at 50 mg/kg (Rattus norvegicus [5]): 74%
inhibition in vivo at 50 mg/kg (Rattus norvegicus [6]): 54%
inhibition in vivo at 50 mg/kg (Rattus norvegicus [7]): 82%

Cc1ccc(Nc2nc(C(=O)NCCc3c[nH]c4ccccc34)cs2)cc1
inhibition in vivo at 50 mg/kg (Rattus norvegicus [4]): 52%
inhibition in vivo at 50 mg/kg (Rattus norvegicus [5]): 57%
inhibition in vivo at 50 mg/kg (Rattus norvegicus [6]): 46%
inhibition in vivo at 50 mg/kg (Rattus norvegicus [7]): 38%

O=C(NCCc1c[nH]c2ccccc12)c1csc(Nc2ccc(F)cc2)n1
inhibition in vivo at 50 mg/kg (Rattus norvegicus [4]): 83%
inhibition in vivo at 50 mg/kg (Rattus norvegicus [5]): 60%
inhibition in vivo at 50 mg/kg (Rattus norvegicus [6]): 59%
inhibition in vivo at 50 mg/kg (Rattus norvegicus [7]): 42%

O=C(NCCc1c[nH]c2ccccc12)c1csc(Nc2ccccc2)n1
viability at 10 µM [1]: 40.1%
viability at 10 µM [2]: 10.3%
viability at 10 µM [3]: 20.1%
IC50 [8]: 100 nM
IC50 [9]: 600 nM
IC50 [10]: 500 nM
fold change (FC) (Jurkat): 4 - 5
inhibition in vivo at 50 mg/kg (Rattus norvegicus [4]): 77%
inhibition in vivo at 50 mg/kg (Rattus norvegicus [5]): 73%
inhibition in vivo at 50 mg/kg (Rattus norvegicus [6]): 65%
inhibition in vivo at 50 mg/kg (Rattus norvegicus [7]): 78%

O=C(NCCc1c[nH]c2ccccc12)c1csc(-c2cccs2)n1
viability at 10 µM [1]: 87.7%
viability at 10 µM [2]: 93.9%
viability at 10 µM [3]: 85.4%
inhibition in vivo at 50 mg/kg (Rattus norvegicus [4]): 82%
inhibition in vivo at 50 mg/kg (Rattus norvegicus [5]): 76%
inhibition in vivo at 50 mg/kg (Rattus norvegicus [6]): 58%
inhibition in vivo at 50 mg/kg (Rattus norvegicus [7]): 62%

O=C(NCCc1c[nH]c2ccccc12)c1csc(-c2ccco2)n1
viability at 10 µM [1]: 87.2%
viability at 10 µM [2]: 96.9%
viability at 10 µM [3]: 84.4%
inhibition in vivo at 50 mg/kg (Rattus norvegicus [4]): 75%
inhibition in vivo at 50 mg/kg (Rattus norvegicus [5]): 69%
inhibition in vivo at 50 mg/kg (Rattus norvegicus [6]): 49%
inhibition in vivo at 50 mg/kg (Rattus norvegicus [7]): 46%

O=C(NCCc1c[nH]c2ccccc12)c1csc(Cc2ccccc2)n1
viability at 10 µM [1]: 87.3%
viability at 10 µM [2]: 101%
viability at 10 µM [3]: 89%
inhibition in vivo at 50 mg/kg (Rattus norvegicus [4]): 76%
inhibition in vivo at 50 mg/kg (Rattus norvegicus [5]): 57%
inhibition in vivo at 50 mg/kg (Rattus norvegicus [6]): 45%
inhibition in vivo at 50 mg/kg (Rattus norvegicus [7]): 42%

O=C(NCCc1c[nH]c2ccccc12)c1csc(-c2ccccc2)n1
viability at 10 µM [1]: 87.3%
viability at 10 µM [2]: 97.6%
viability at 10 µM [3]: 88.3%
inhibition in vivo at 50 mg/kg (Rattus norvegicus [4]): 55%
inhibition in vivo at 50 mg/kg (Rattus norvegicus [5]): 62%
inhibition in vivo at 50 mg/kg (Rattus norvegicus [6]): 25%
inhibition in vivo at 50 mg/kg (Rattus norvegicus [7]): 57%

O=C(NCCc1c[nH]c2ccccc12)c1csc(Nc2ccc([N+](=O)[O-])cc2)n1
viability at 10 µM [1]: 92.5%
viability at 10 µM [2]: 72.1%
viability at 10 µM [3]: 92.3%
inhibition in vivo at 50 mg/kg (Rattus norvegicus [4]): 66%
inhibition in vivo at 50 mg/kg (Rattus norvegicus [5]): 59%
inhibition in vivo at 50 mg/kg (Rattus norvegicus [6]): 57%
inhibition in vivo at 50 mg/kg (Rattus norvegicus [7]): 50%

O=C(NCCc1c[nH]c2ccccc12)c1csc(Nc2ccc(Cl)cc2)n1
inhibition in vivo at 50 mg/kg (Rattus norvegicus [4]): 49%
inhibition in vivo at 50 mg/kg (Rattus norvegicus [5]): 59%
inhibition in vivo at 50 mg/kg (Rattus norvegicus [6]): 50%
inhibition in vivo at 50 mg/kg (Rattus norvegicus [7]): 41%

Cc1nc(C(=O)NCCc2c[nH]c3ccccc23)cs1
viability at 10 µM [1]: 88.1%
viability at 10 µM [2]: 97%
viability at 10 µM [3]: 90.4%
inhibition in vivo at 50 mg/kg (Rattus norvegicus [4]): 63%
inhibition in vivo at 50 mg/kg (Rattus norvegicus [5]): 60%
inhibition in vivo at 50 mg/kg (Rattus norvegicus [6]): 44%
inhibition in vivo at 50 mg/kg (Rattus norvegicus [7]): 50%

O=C(NCCc1c[nH]c2ccccc12)c1csc(Nc2ccc(Br)cc2)n1
viability at 10 µM [1]: 85.5%
viability at 10 µM [2]: 55.3%
viability at 10 µM [3]: 41.5%
inhibition in vivo at 50 mg/kg (Rattus norvegicus [4]): 23%
inhibition in vivo at 50 mg/kg (Rattus norvegicus [5]): 54%
inhibition in vivo at 50 mg/kg (Rattus norvegicus [6]): 49%
inhibition in vivo at 50 mg/kg (Rattus norvegicus [7]): 46%

CC(=O)c1nc(C(=O)NCCc2c[nH]c3ccccc23)cs1 [BACILLAMIDE A]
viability at 10 µM [1]: 85.1%
viability at 10 µM [2]: 81.1%
viability at 10 µM [3]: 105%
inhibition in vivo at 50 mg/kg (Rattus norvegicus [4]): 58%
inhibition in vivo at 50 mg/kg (Rattus norvegicus [5]): 56%
inhibition in vivo at 50 mg/kg (Rattus norvegicus [6]): 46%
inhibition in vivo at 50 mg/kg (Rattus norvegicus [7]): 42%

COc1cccc2c1C(=O)c1c(O)c3c(c(O)c1C2=O)C[C@@](O)(C(=O)CO)C[C@@H]3O[C@H]1C[C@H](N)[C@H](O)[C@H](C)O1 [DOXORUBICIN]
viability at 10 µM [1]: 18.7%
viability at 10 µM [2]: 23.1%
viability at 10 µM [3]: 22.1%
IC50 [8]: 330 nM
IC50 [9]: 450 nM

COc1ccc2c(c1)c(CC(=O)O)c(C)n2C(=O)c1ccc(Cl)cc1 [INDOMETHACIN]
inhibition in vivo at 50 mg/kg (Rattus norvegicus [4]): 94%
inhibition in vivo at 50 mg/kg (Rattus norvegicus [5]): 84%
inhibition in vivo at 50 mg/kg (Rattus norvegicus [6]): 81%
inhibition in vivo at 50 mg/kg (Rattus norvegicus [7]): 86%
